Read-outs that look alike come from different tables or passages of the source.
Key:
gastric mucosa = assay: Ulcerogenic liability (ulcer index); format: in vivo, albino mice; conditions: orally, three successive days, 10 mg/kg indomethacin mol equivalent; for Number of animals with ulcer: 6 animals per group; for Ulcer index: sum of the three values
Summary of the method: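 Albino mice were fasted 18 h before dosing, and controls got saline with a few drops of Tween 80. Gastric mucosa was checked under a 10× lens for lesions and erosions. The ulcer index combines percentage incidence divided by 10, mean ulcers per stomach and mean severity.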

[1] = tested on: PHA-stimulated splenocytes; assay: Proliferative response of PHA-stimulated splenocytes (MTT assay); format: cell-based; conditions: PHA 5 μg/ml, 72 hr; compounds at 5 μM (method says 10 μM); ratio of O.D. versus vehicle control
Summary of the method: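 Freshly prepared splenocytes (1×10^6 cells/well) were cultured for 72 h at 37° C with compound at 10 μM final, with or without PHA (5 μg/ml). Viability was read by MTT (4 h), with absorbance at 570 nm against 690 nm reference. Stimulation index is the OD ratio of treated versus vehicle cultures.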

[2] = tested on: lipopolysaccharide-stimulated peritoneal macrophages; assay: Production of nitric oxide by lipopolysaccharide-stimulated peritoneal macrophages (Greiss reagent); format: cell-based; design: Potency (%): % inhibition of nitric oxide production relative to lipopolysaccharide-stimulated macrophages: concentration or dose not given beside the values; conditions: LPS-stimulated peritoneal macrophages; for Nitric oxide (nitrite) concentration, μM (average ± SD): 24 h, nitrite by Greiss reagent
Summary of the method: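 Macrophages in nitrite-free medium with 0.1% BSA were stimulated with LPS at 0.5–10 ng/ml, some wells also receiving epinephrine, norepinephrine or dopamine at […], for 24 h at 37° C. Nitrite in supernatants was measured with Greiss reagent, 15 min at room temperature, absorbance 532 nm.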

[3] = tested on: Salmonella typhi ATCC19430; assay: Antimicrobial MIC, agar dilution; format: cell-based; conditions: Salmonella enterica, read-out: Minimum inhibitory concentration (MIC)
[4] = tested on: HCT116 (colon) carcinoma cell line; assay: Anti-tumor properties, MTT; format: cell-based; conditions: Homo sapiens, HCT-116; read-out: IC50 (μM) HCT116 (colon)
Summary of the method: (§1)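 Cells seeded at 10×10^3 per well for 24 h, then exposed to compound in serum-free medium (final up to 100 μM, 0.5% DMSO vehicle) for 72 h in triplicate. Viability by MTT reduction (4 h, SDS solubilised), absorbance 595 nm/ref 620 nm; IC50 from survival curves.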

[5] = tested on: HepG2 (hepatocellular) carcinoma cell line; assay: Anti-tumor properties, MTT; format: cell-based; conditions: Homo sapiens, HepG2; read-out: IC50 (μM) HepG2 (liver)
Summary of the method: as §1

[6] = tested on: MCF7 (breast) carcinoma cell line; assay: Anti-tumor properties, MTT; format: cell-based; conditions: Homo sapiens, MCF7; read-out: IC50 (μM) MCF7 (breast)
Summary of the method: as §1

[7] = tested on: A-549 (lung) carcinoma cell line; assay: Anti-tumor properties, MTT; format: cell-based; conditions: Homo sapiens, A549
[8] = tested on: PC3 (prostate) carcinoma cell line; assay: Anti-tumor properties, MTT; format: cell-based; conditions: Homo sapiens
[9] = tested on: Staphylococcus aureus ATCC25923; assay: Antimicrobial MIC, agar dilution
[10] = tested on: Streptococcus pyogenes ATCC19615; assay: Antimicrobial MIC, agar dilution
[11] = tested on: Pseudomonas aeruginosa ATCC27853; assay: Antimicrobial MIC, agar dilution
[12] = tested on: Candida albicans (local isolate); assay: Antimicrobial MIC, agar dilution; conditions: Candida albicans, read-out: Minimum inhibitory concentration (MIC)
[13] = ATCC25923, 18 h, read-out: Minimum inhibitory concentration (MIC)
[14] = ATCC25923, read-out: Minimum inhibitory concentration (MIC)
[15] = ATCC19615, 18 h, read-out: Minimum inhibitory concentration (MIC)
[16] = ATCC19615, read-out: Minimum inhibitory concentration (MIC)
[17] = ATCC27853, 18 h, read-out: Minimum inhibitory concentration (MIC)
[18] = ATCC27853, read-out: Minimum inhibitory concentration (MIC)

## COc1cc(/C=C/C(=O)CC(=O)/C=C/c2ccc(OC(=O)CN)c(OC)c2)ccc1OC(=O)CN.Cl.Cl [HCl-Gly-Cur, 2,2′-((((1E,6E)-3,5-dioxohepta-1,6-diene-1,7-diyl)bis(2-methoxy-4,1-phenylene))bis(oxy))bis(2-oxoethan-1-aminium) chloride]
Gastric mucosa
  % Incidence of ulcer divided by 10: 0
  Average of ulcer number: 0
  Average severity of ulcer: 0
  Number of animals with ulcer: 0/6
  Ulcer index: 0
[1]
  Stimulation Index (average ± SD): 0.99 ± 0.16
[2]
  Potency (%): % inhibition of nitric oxide production relative to lipopolysaccharide-stimulated macrophages: 49.98%
  Nitric oxide (nitrite) concentration, μM (average ± SD): 13.66 ± 1.05 µM
[3]; 18 h
  MIC: 0.25 µg/mL
[3]
  MIC: 0.45 µM
[4]
  IC50: 36.2 µM
[5]
  IC50: 39.8 µM
[6]
  IC50: 9.15 µM
[7]
  IC50: 18.9 µM
[8]
  IC50: 38.7 µM
[9]; [13]
  MIC: 0.5 µg/mL
[9]; [14]
  MIC: 0.9 µM
[10]; [15]
  MIC: 0.25 µg/mL
[10]; [16]
  MIC: 0.45 µM
[11]; [17]
  MIC: 1 µg/mL
[11]; [18]
  MIC: 1.8 µM
[12]; 18 h
  MIC: 1 µg/mL
[12]
  MIC: 1.8 µM

## COc1cc(/C=C/C(=O)CC(=O)/C=C/c2ccc(OC(=O)[C@@H](N)CCSC)c(OC)c2)ccc1OC(=O)[C@@H](N)CCSC.Cl.Cl [HCl-L-Met-Cur, (2S,2′S)-1,1′-((((1E,6E)-3,5-dioxohepta-1,6-diene-1,7-diyl)bis(2-methoxy-4,1-phenylene))bis(oxy))bis(4-(methylthio)-1-oxobutan-2-aminium) chloride]
Gastric mucosa
  % Incidence of ulcer divided by 10: 0
  Average of ulcer number: 0
  Average severity of ulcer: 0
  Number of animals with ulcer: 0/6
  Ulcer index: 0
[1]
  Stimulation Index (average ± SD): 1.49 ± 0.06
[2]
  Potency (%): % inhibition of nitric oxide production relative to lipopolysaccharide-stimulated macrophages: 37.94%
  Nitric oxide (nitrite) concentration, μM (average ± SD): 16.95 ± 0.40 µM
[3]; 18 h
  MIC: 0.125 µg/mL
[3]
  MIC: 0.178 µM
[4]
  IC50: 61.9 µM
[5]
  IC50: 39.8 µM
[6]
  IC50: 11.3 µM
[7]
  IC50: 32.8 µM
[8]
  IC50: 42.6 µM
[9]; [13]
  MIC: 0.25 µg/mL
[9]; [14]
  MIC: 0.355 µM
[10]; [15]
  MIC: 0.5 µg/mL
[10]; [16]
  MIC: 0.711 µM
[11]; [17]
  MIC: 0.5 µg/mL
[11]; [18]
  MIC: 0.711 µM
[12]; 18 h
  MIC: 0.5 µg/mL
[12]
  MIC: 0.711 µM

## COc1cc(/C=C/C(=O)CC(=O)/C=C/c2ccc(OC(=O)[C@@H](N)CCC(N)=O)c(OC)c2)ccc1OC(=O)[C@@H](N)CCC(N)=O.Cl.Cl [HCl-L-Gln-Cur, (2S,2′S)-1,1′-((((1E,6E)-3,5-dioxohepta-1,6-diene-1,7-diyl)bis(2-methoxy-4,1-phenylene))bis(oxy))bis(5-amino-1,5-dioxopentan-2-aminium) chloride]
[1]
  Stimulation Index (average ± SD): 2.22 ± 0.20
[2]
  Potency (%): % inhibition of nitric oxide production relative to lipopolysaccharide-stimulated macrophages: 20.35%
  Nitric oxide (nitrite) concentration, μM (average ± SD): 21.75 ± 1.31 µM
[3]; 18 h
  MIC: 0.125 µg/mL
[3]
  MIC: 0.179 µM
[4]
  IC50: 41 µM
[5]
  IC50: 39.1 µM
[6]
  IC50: 9.15 µM
[7]
  IC50: 21.1 µM
[8]
  IC50: 34.4 µM
[9]; [13]
  MIC: 0.25 µg/mL
[9]; [14]
  MIC: 0.358 µM
[10]; [15]
  MIC: 0.5 µg/mL
[10]; [16]
  MIC: 0.717 µM
[11]; [17]
  MIC: 0.5 µg/mL
[11]; [18]
  MIC: 0.717 µM
[12]; 18 h
  MIC: 0.125 µg/mL
[12]
  MIC: 0.179 µM

## COc1cc(/C=C/C(=O)CC(=O)/C=C/c2ccc(OC(=O)C(C)N)c(OC)c2)ccc1OC(=O)C(C)N.Cl.Cl (racemic) [HCl-DL-Ala-Cur, 1,1′-((((1E,6E)-3,5-dioxohepta-1,6-diene-1,7-diyl)bis(2-methoxy-4,1-phenylene))bis(oxy))bis(1-oxopropan-2-aminium) chloride]
[1]
  Stimulation Index (average ± SD): 1.91 ± 0.15
[2]
  Potency (%): % inhibition of nitric oxide production relative to lipopolysaccharide-stimulated macrophages: 27.69%
  Nitric oxide (nitrite) concentration, μM (average ± SD): 19.75 ± 0.97 µM
[3]; 18 h
  MIC: 0.25 µg/mL
[3]
  MIC: 0.428 µM
[4]
  IC50: 66.9 µM
[5]
  IC50: 36.8 µM
[6]
  IC50: 9.79 µM
[7]
  IC50: 22.2 µM
[8]
  IC50: 21.7 µM
[9]; [13]
  MIC: 0.125 µg/mL
[9]; [14]
  MIC: 0.214 µM
[10]; [15]
  MIC: 0.25 µg/mL
[10]; [16]
  MIC: 0.428 µM
[11]; [17]
  MIC: 0.5 µg/mL
[11]; [18]
  MIC: 0.857 µM
[12]; 18 h
  MIC: 1 µg/mL
[12]
  MIC: 1.71 µM

## CC[C@H](C)[C@H](N)C(=O)Oc1ccc(/C=C/C(=O)CC(=O)/C=C/c2ccc(OC(=O)[C@@H](N)[C@@H](C)CC)c(OC)c2)cc1OC.Cl.Cl [HCl-L-Ile-Cur, (2S,2′S,3S,3′S)-1,1′-((((1E,6E)-3,5-dioxohepta-1,6-diene-1,7-diyl)bis(2-methoxy-4,1-phenylene))bis(oxy))bis(3-methyl-1-oxopentan-2-aminium) chloride]
[1]
  Stimulation Index (average ± SD): 1.59 ± 0.17
[2]
  Potency (%): % inhibition of nitric oxide production relative to lipopolysaccharide-stimulated macrophages: 35.45%
  Nitric oxide (nitrite) concentration, μM (average ± SD): 17.63 ± 1.14 µM
[3]; 18 h
  MIC: 0.125 µg/mL
[3]
  MIC: 0.187 µM
[4]
  IC50: 36.7 µM
[5]
  IC50: 38.9 µM
[6]
  IC50: 10.2 µM
[7]
  IC50: 20.9 µM
[8]
  IC50: 34.4 µM
[9]; [13]
  MIC: 0.25 µg/mL
[9]; [14]
  MIC: 0.374 µM
[10]; [15]
  MIC: 0.5 µg/mL
[10]; [16]
  MIC: 0.749 µM
[11]; [17]
  MIC: 0.25 µg/mL
[11]; [18]
  MIC: 0.374 µM
[12]; 18 h
  MIC: 0.125 µg/mL
[12]
  MIC: 0.187 µM

## COc1cc(/C=C/C(=O)CC(=O)/C=C/c2ccc(OC(=O)[C@@H](N)Cc3ccccc3)c(OC)c2)ccc1OC(=O)[C@@H](N)Cc1ccccc1.Cl.Cl [HCl-L-Phe-Cur, (2S,2′S)-1,1′-((((1E,6E)-3,5-dioxohepta-1,6-diene-1,7-diyl)bis(2-methoxy-4,1-phenylene))bis(oxy))bis(1-oxo-3-phenylpropan-2-aminium) chloride]
[1]
  Stimulation Index (average ± SD): 1.41 ± 0.31
[2]
  Potency (%): % inhibition of nitric oxide production relative to lipopolysaccharide-stimulated macrophages: 39.74%
  Nitric oxide (nitrite) concentration, μM (average ± SD): 16.46 ± 2.05 µM
[3]; 18 h
  MIC: 0.125 µg/mL
[3]
  MIC: 0.17 µM
[4]
  IC50: 65.6 µM
[5]
  IC50: 56.2 µM
[6]
  IC50: 11.5 µM
[7]
  IC50: 33.5 µM
[8]
  IC50: 74.4 µM
[9]; [13]
  MIC: 0.25 µg/mL
[9]; [14]
  MIC: 0.34 µM
[10]; [15]
  MIC: 0.5 µg/mL
[10]; [16]
  MIC: 0.68 µM
[11]; [17]
  MIC: 0.5 µg/mL
[11]; [18]
  MIC: 0.68 µM
[12]; 18 h
  MIC: 0.5 µg/mL
[12]
  MIC: 0.68 µM
